# Measured values published in US20240270740A1, “INHIBITORS OF CYCLIC GMP-AMP SYNTHASE AND USES THEREOF” (Ventus Therapeutics U.S., Inc., priority 2022, published 2024).
# Target: T1, hcGAS (Homo sapiens, UniProt Q8N884)
# Experiment: hcGAS LCMS assay (direct measurement of cGAMP production)
# Format: biochemical
# Settings: 0.5 nM hcGAS, 100 μM ATP, 100 μM GTP, 25 nM dsDNA, 4 h incubation
# Procedure, shortened: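 Direct LC/MS readout of cGAMP formed: 4-h enzyme–substrate incubation with compound, stopped by acetonitrile/water quench carrying isotope-labelled cGAMP (0.15 mM) as standard. Potency reported as IC50 ranges.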
# T1 sequence (Q8N884 whole entry): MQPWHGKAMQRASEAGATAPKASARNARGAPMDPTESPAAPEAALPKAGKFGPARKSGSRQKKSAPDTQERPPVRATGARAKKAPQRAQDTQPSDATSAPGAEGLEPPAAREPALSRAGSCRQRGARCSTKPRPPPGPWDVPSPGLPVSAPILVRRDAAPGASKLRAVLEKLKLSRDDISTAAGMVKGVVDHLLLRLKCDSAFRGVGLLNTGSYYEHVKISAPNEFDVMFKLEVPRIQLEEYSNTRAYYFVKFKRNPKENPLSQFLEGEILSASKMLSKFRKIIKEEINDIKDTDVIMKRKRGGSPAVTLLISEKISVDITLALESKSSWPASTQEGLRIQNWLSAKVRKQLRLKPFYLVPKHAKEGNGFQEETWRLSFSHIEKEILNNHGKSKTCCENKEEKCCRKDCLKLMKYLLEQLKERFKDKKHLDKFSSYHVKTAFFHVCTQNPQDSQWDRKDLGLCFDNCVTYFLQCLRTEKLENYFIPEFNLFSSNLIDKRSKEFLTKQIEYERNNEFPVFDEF
row,IC50,Structure (SMILES)
1,20 to 60 nM,"COc1c(N2CCC[C@@H]2CC#N)cc(C(=O)Nc2nnc(-n3nccc3C)s2)oc1=O [Compound 174, (R)-4-(2-(cyanomethyl)pyrrolidin-1-yl)-3-methoxy-N-(5-(5-methyl-1H-pyrazol-1-yl)-1,3,4-thiadiazol-2-yl)-2-oxo-2H-pyran-6-carboxamide]"
2,< 5 nM,"COCCOc1c(N[C@@H](COC)c2ccccc2)cc(C(=O)Nc2nnc(-c3c(Cl)ccn3C)s2)oc1=O [Compound 201, (R)—N-(5-(3-chloro-1-methyl-1H-pyrrol-2-yl)-1,3,4-thiadiazol-2-yl)-4-((2-methoxy-1-phenylethyl)amino)-3-(2-methoxyethoxy)-2-oxo-2H-pyran-6-carboxamide]"
3,< 5 nM,"Nc1ccnn1-c1nnc(NC(=O)c2cc(NC34CC(C3)C4)c(OCCO)c(=O)o2)s1 [Compound 177, N-(5-(5-amino-1H-pyrazol-1-yl)-1,3,4-thiadiazol-2-yl)-4-(bicyclo[1.1.1]pentan-1-ylamino)-3-(2-hydroxyethoxy)-2-oxo-2H-pyran-6-carboxamide]"
4,5 to 20 nM,"COc1c(N[C@H]2CCCC[C@@H]2OC)cc(C(=O)Nc2nnc(-n3nccc3C)s2)oc1=O [Compound 70, 3-methoxy-4-(((1S,2S)-2-methoxycyclohexyl)amino)-N-(5-(5-methyl-1H-pyrazol-1-yl)-1,3,4-thiadiazol-2-yl)-2-oxo-2H-pyran-6-carboxamide]"
5,5 to 20 nM,"COc1c(NC2COC(C)(C)OC2)cc(C(=O)Nc2nnc(-n3nccc3C)s2)oc1=O [Compound 195, 4-((2,2-dimethyl-1,3-dioxan-5-yl)amino)-3-methoxy-N-(5-(5-methyl-1H-pyrazol-1-yl)-1,3,4-thiadiazol-2-yl)-2-oxo-2H-pyran-6-carboxamide]"
6,5 to 20 nM,"COc1c(N(C)[C@@H]2CCC[C@@H]2O)cc(C(=O)Nc2nnc(-n3nccc3C)s2)oc1=O (racemic) [Rac-159, 4-(((cis)-2-hydroxycyclopentyl)(methyl)amino)-3-methoxy-N-(5-(5-methyl-1H-pyrazol-1-yl)-1,3,4-thiadiazol-2-yl)-2-oxo-2H-pyran-6-carboxamide]"
7,5 to 20 nM,"COc1c(N[C@@H]2COC[C@H]2OC)cc(C(=O)Nc2nnc(-n3nccc3C)s2)oc1=O [Compound 102, 3-methoxy-4-(((3R,4S)-4-methoxytetrahydrofuran-3-yl)amino)-N-(5-(5-methyl-1H-pyrazol-1-yl)-1,3,4-thiadiazol-2-yl)-2-oxo-2H-pyran-6-carboxamide]"
8,≥ 200 nM,"COC[C@H]1CCC[C@H]1Nc1cc(C(=O)Nc2nnc(-n3nccc3C)s2)oc(=O)c1OC (single isomer, unassigned) [Compound 80*]"
9,20 to 60 nM,"COC[C@H](Nc1cc(C(=O)Nc2nnc(-n3nccc3C)s2)oc(=O)c1OC)c1ccccc1OC (single isomer, unassigned) [198*]"
10,< 5 nM,"COC[C@H](Nc1cc(C(=O)Nc2nnc(-c3c(Cl)ccn3C)s2)oc(=O)c1OC)c1ccccc1 [Compound 213, (R)-N-(5-(3-chloro-1-methyl-1H-pyrrol-2-yl)-1,3,4-thiadiazol-2-yl)-3-methoxy-4-((2-methoxy-1-phenylethyl)amino)-2-oxo-2H-pyran-6-carboxamide]"
11,5 to 20 nM,"COc1c(N[C@@H]2CC[C@H](OC)C2)cc(C(=O)Nc2nnc(-n3nccc3C)s2)oc1=O (single isomer, unassigned) [125*]"
12,< 5 nM,"COc1c(N[C@@H]2CC[C@@H]2O)cc(C(=O)Nc2nnc(-c3c(Cl)ccn3C)s2)oc1=O (single isomer, unassigned) [Compound 54]"
13,5 to 20 nM,"COc1c(N[C@H]2CCC[C@H]2O)cc(C(=O)Nc2nnc(-n3nccc3C)s2)oc1=O [Compound 5, 4-(((1S,2R)-2-hydroxycyclopentyl)amino)-3-methoxy-N-(5-(5-methyl-1H-pyrazol-1-yl)-1,3,4-thiadiazol-2-yl)-2-oxo-2H-pyran-6-carboxamide]"
14,5 to 20 nM,"COc1c(N[C@@H]2CCC[C@@H]2O)cc(C(=O)Nc2nnc(-c3c(Cl)ccn3C)s2)oc1=O [Compound 197, N-(5-(3-chloro-1-methyl-1H-pyrrol-2-yl)-1,3,4-thiadiazol-2-yl)-4-(((1R,2S)-2-hydroxycyclopentyl)amino)-3-methoxy-2-oxo-2H-pyran-6-carboxamide]"
15,< 5 nM,"COCC(COC)Nc1cc(C(=O)Nc2nnc(-c3c(Cl)ccn3C)s2)oc(=O)c1OC [Compound 84, N-(5-(3-chloro-1-methyl-1H-pyrrol-2-yl)-1,3,4-thiadiazol-2-yl)-4-((1,3-dimethoxypropan-2-yl)amino)-3-methoxy-2-oxo-2H-pyran-6-carboxamide]"
16,5 to 20 nM,"COc1c(N[C@@H]2CCCC[C@H]2OC)cc(C(=O)Nc2nnc(-n3nccc3C)s2)oc1=O [Compound 202, 3-methoxy-4-(((1R,2R)-2-methoxycyclohexyl)amino)-N-(5-(5-methyl-1H-pyrazol-1-yl)-1,3,4-thiadiazol-2-yl)-2-oxo-2H-pyran-6-carboxamide]"
17,5 to 20 nM,"COc1c(N[C@H]2CC[C@H]2OCC(F)F)cc(C(=O)Nc2nnc(-n3nccc3C)s2)oc1=O (single isomer, unassigned) [172*]"
18,< 5 nM,"COCCOc1c(N[C@@H](COC)c2ccccc2)cc(C(=O)Nc2nnc(-n3nccc3C)s2)oc1=O [Compound 200, (R)-4-((2-Methoxy-1-phenylethyl)amino)-3-(2-methoxyethoxy)-N-(5-(5-methyl-1H-pyrazol-1-yl)-1,3,4-thiadiazol-2-yl)-2-oxo-2H-pyran-6-carboxamide]"
19,20 to 60 nM,"COc1c(N[C@@H](C)[C@@H](C)OC)cc(C(=O)Nc2nnc(-n3nccc3C)s2)oc1=O [Compound 207, 3-methoxy-4-(((2S,3R)-3-methoxybutan-2-yl)amino)-N-(5-(5-methyl-1H-pyrazol-1-yl)-1,3,4-thiadiazol-2-yl)-2-oxo-2H-pyran-6-carboxamide]"
20,5 to 20 nM,"COc1c(N[C@@H]2CC[C@@H]2OC)cc(C(=O)Nc2nnc(-n3nccc3C)s2)oc1=O (single isomer, unassigned) [122*]"
21,< 5 nM,"COc1c(N[C@H]2CC[C@H]2O)cc(C(=O)Nc2nnc(-c3c(Cl)ccn3C)s2)oc1=O (single isomer, unassigned) [Compound 53]"
22,5 to 20 nM,"COc1c(NC2CCC23COC3)cc(C(=O)Nc2nnc(-n3nccc3C)s2)oc1=O (racemic) [Rac-56, 4-((2-oxaspiro[3.3]heptan-5-yl)amino)-3-methoxy-N-(5-(5-methyl-1H-pyrazol-1-yl)-1,3,4-thiadiazol-2-yl)-2-oxo-2H-pyran-6-carboxamide]"
23,5 to 20 nM,"COCC1(Nc2cc(C(=O)Nc3nnc(-n4nccc4C)s3)oc(=O)c2OC)COC1 [Compound 98, 3-methoxy-4-((3-(methoxymethyl)oxetan-3-yl)amino)-N-(5-(5-methyl-1H-pyrazol-1-yl)-1,3,4-thiadiazol-2-yl)-2-oxo-2H-pyran-6-carboxamide]"
24,5 to 20 nM,"COC[C@@H](C)Nc1cc(C(=O)Nc2nnc(-c3sccc3Cl)s2)oc(=O)c1OC [Compound 94, (R)—N-(5-(3-chlorothiophen-2-yl)-1,3,4-thiadiazol-2-yl)-3-methoxy-4-((1-methoxypropan-2-yl)amino)-2-oxo-2H-pyran-6-carboxamide]"
25,≥ 200 nM,"COc1c(N[C@@H]2Cc3ccccc3[C@@H]2O)cc(C(=O)Nc2nnc(-n3nccc3C)s2)oc1=O (racemic) [Rac-81, 4-(((1S,2R)-1-hydroxy-2,3-dihydro-1H-inden-2-yl)amino)-3-methoxy-N-(5-(5-methyl-1H-pyrazol-1-yl)-1,3,4-thiadiazol-2-yl)-2-oxo-2H-pyran-6-carboxamide]"

# Target: T1, hcGAS
# Experiment: hcGAS Kinase-Glo assay (ATP depletion)
# Format: biochemical
# Settings: 40 nM hcGAS, 100 μM ATP, 100 μM GTP, 25 nM dsDNA, 3 h incubation
# Procedure: cGAS catalyzes the cyclization of ATP and GTP to produce cGAMP, which is the activating ligand of STING. Human cGAS (hcGAS) inhibition can thus be quantified by measuring how much cGAMP is formed either indirectly, by monitoring ATP-depletion as in the hcGAS Kinase-Glo assay (as described below), or directly, such as using the hcGAS LCMS assay (as described below).
# (i) hcGAS Kinase-Glo Assay
# Compounds were tested for their human-cGAS […] inhibition activity using the methodology reported in Lama et al., “Development of human cGAS-specific small molecule inhibitors for repression of dsDNA-triggered interferon expression”, Nature Communications 10, Article number: 2261 (2019), with slight changes to some conditions as shown in Table B.
# The results of the assay, expressed in IC50 values, are reported in Table D with the following designations: A represents an IC50 value<0.01 μM; B represents an IC50 value≥0.01 μM and <0.03 μM; C represents an IC50 value≥0.03 μM and <0.1 μM; D represents an IC50 value≥0.1.
row,IC50,Structure (SMILES)
1,10 to 30 nM,COc1c(N[C@H]2CC[C@H](O)CC2)cc(C(=O)Nc2nnc(-n3nccc3C)s2)oc1=O [Compound 217]
2,10 to 30 nM,"COc1c(NCCCO)cc(C(=O)Nc2nnc(-n3nccc3C)s2)oc1=O [Compound 35, 4-((3-hydroxypropyl)amino)-3-methoxy-N-(5-(5-methyl-1H-pyrazol-1-yl)-1,3,4-thiadiazol-2-yl)-2-oxo-2H-pyran-6-carboxamide]"
3,10 to 30 nM,"COC[C@@H]1CCCN1c1cc(C(=O)Nc2nnc(-n3nccc3C)s2)oc(=O)c1OC [Compound 39, (S)-3-methoxy-4-(2-(methoxymethyl)pyrrolidin-1-yl)-N-(5-(5-methyl-1H-pyrazol-1-yl)-1,3,4-thiadiazol-2-yl)-2-oxo-2H-pyran-6-carboxamide]"
4,30 to 100 nM,"COCCCNc1cc(C(=O)Nc2nnc(-n3nccc3C)s2)oc(=O)c1OC [Compound 32, 5-methoxy-4-(3-methoxypropylamino)-N-(5-(5-methyl-1H-pyrazol-1-yl)-1,3,4-thiadiazol-2-yl)-6-oxo-6H-pyran-2-carboxamide]"
5,30 to 100 nM,"COc1c(NC2CC2)cc(C(=O)Nc2nnc(-n3nccc3C)s2)oc1=O [Compound 180, 4-(cyclopropylamino)-5-methoxy-N-[5-(5-methylpyrazol-1-yl)-1,3,4-thiadiazol-2-yl]-6-oxopyran-2-carboxamide]"
6,10 to 30 nM,"COc1c(N2CC[C@@H](CO)C2)cc(C(=O)Nc2nnc(-n3nccc3C)s2)oc1=O [Compound 88, (R)-4-(3-(hydroxymethyl)pyrrolidin-1-yl)-3-methoxy-N-(5-(5-methyl-1H-pyrazol-1-yl)-1,3,4-thiadiazol-2-yl)-2-oxo-2H-pyran-6-carboxamide]"
